In patent US20240327364A1, “THERAPEUTIC TARGETING OF GPR68 TO INDUCE FERROPTOSIS” (University Of Maryland, Baltimore, priority 2023, published 2024):

Assays:
[1] = target: T1, ANKK1 (Homo sapiens, UniProt Q8NFD2); assay: KinomeScan; assay type: binding; conditions: read-out: % Control
T1 construct: purchased DiscoveRx (Fremont, CA)

[2] = target: T2, CAMK1D (Homo sapiens, UniProt Q8IU85); assay: KinomeScan; assay type: binding; conditions: read-out: % Control
T2 construct: purchased DiscoveRx (KinomeScan service)

[3] = target: CHEK2 (Homo sapiens, UniProt O96017); assay: KinomeScan; assay type: binding; conditions: read-out: % Control
[4] = target: T3, DDR1 (Homo sapiens, UniProt Q08345); assay: KinomeScan; assay type: binding; conditions: read-out: % Control
T3 construct: purchased DiscoveRx (Fremont, CA), KinomeScan service

[5] = target: T4, EGFR(L747-E749del, A750P) (Homo sapiens, UniProt P00533, A750P/DEL747-749); assay: KinomeScan; assay type: binding; conditions: read-out: % Control
T4 construct: purchased DiscoveRx (Fremont, CA), KinomeScan service

[6] = target: T5, EGFR(L858R) (Homo sapiens, UniProt P00533, L858R); assay: KinomeScan; assay type: binding; conditions: read-out: % Control
T5 construct: purchased DiscoveRx (Fremont, CA), KinomeScan service

[7] = target: T6, EPHA2 (Homo sapiens, UniProt P29317); assay: KinomeScan; assay type: binding; conditions: read-out: % Control
T6 construct: purchased DiscoveRx (Fremont, CA)

[8] = target: T7, HIPK1 (Homo sapiens, UniProt Q86Z02); assay: KinomeScan; assay type: binding; conditions: read-out: % Control
T7 construct: purchased DiscoveRx (Fremont, CA)

[9] = target: T8, KIT(V559D, T670I) (Homo sapiens, UniProt P10721, T670I/V559D); assay: KinomeScan; assay type: binding; conditions: read-out: % Control
T8 construct: purchased DiscoveRx

[10] = target: T9, LOK (Homo sapiens, UniProt O94804); assay: KinomeScan; assay type: binding; conditions: read-out: % Control
T9 construct: purchased DiscoveRx

[11] = target: T10, MEK4 (Homo sapiens, UniProt P45985); assay: KinomeScan; assay type: binding; conditions: read-out: % Control
T10 construct: purchased DiscoveRx (Fremont, CA)

[12] = target: T11, MET(M1250T) (Homo sapiens, UniProt P08581, M1250T); assay: KinomeScan; assay type: binding; conditions: read-out: % Control
T11 construct: purchased DiscoveRx (Fremont, CA)

[13] = target: T12, MLK1 (Homo sapiens, UniProt P80192); assay: KinomeScan; assay type: binding; conditions: read-out: % Control
T12 construct: purchased DiscoveRx

[14] = target: T13, PAK3 (Homo sapiens, UniProt O75914); assay: KinomeScan; assay type: binding; conditions: read-out: % Control
T13 construct: purchased DiscoveRx

[15] = target: T14, QSK (Homo sapiens, UniProt Q9Y2K2); assay: KinomeScan; assay type: binding; conditions: read-out: % Control
T14 construct: purchased DiscoveRx (Fremont, CA)

[16] = target: T15, TAOK3 (Homo sapiens, UniProt Q9H2K8); assay: KinomeScan; assay type: binding; conditions: read-out: % Control
T15 construct: purchased DiscoveRx (Fremont, CA)

[17] = target: T16, TNNI3K (Homo sapiens, UniProt Q59H18); assay: KinomeScan; assay type: binding; conditions: read-out: % Control
T16 construct: purchased DiscoveRx (Fremont, CA)

[18] = target: T17, WEE2 (Homo sapiens, UniProt P0C1S8); assay: KinomeScan; assay type: binding; conditions: read-out: % Control
T17 construct: purchased DiscoveRx

[19] = target: T18, A1 (Homo sapiens, UniProt P30542); assay: GPCR Profiler; assay type: cell-based
T18 construct: host or cells: Chem-1 cells with promiscuous Gα15

[20] = target: T19, ADRB1 (Homo sapiens, UniProt P08588); assay: GPCR Profiler; assay type: cell-based
T19 construct: host or cells: Chem-1 cells with promiscuous Gα15

[21] = target: T20, CaS (Homo sapiens, UniProt P41180); assay: GPCR Profiler; assay type: cell-based
T20 construct: host or cells: Chem-1 cells with promiscuous Gα15

[22] = target: T21, CCR5 (Macaca mulatta, UniProt P61813); assay: GPCR Profiler; assay type: cell-based
T21 construct: host or cells: Chem-1 cells with Gα15

[23] = target: T22, CCR6 (Homo sapiens, UniProt P51684); assay: GPCR Profiler; assay type: cell-based
T22 construct: host or cells: Chem-1 cells with Gα15

[24] = target: T23, CRF1 (Homo sapiens, UniProt P34998); assay: GPCR Profiler; assay type: cell-based
T23 construct: host or cells: Chem-1 cells with Gα15

[25] = target: T24, CXCR6 (Homo sapiens, UniProt O00574); assay: GPCR Profiler; assay type: cell-based
T24 construct: host or cells: Chem-1 cells with Gα15

[26] = target: T25, Ghrelin (Homo sapiens, UniProt Q92847); assay: GPCR Profiler; assay type: cell-based
T25 construct: host or cells: Chem-1 cells expressing Gα15

[27] = target: T26, GLP-1 (Homo sapiens, UniProt P43220); assay: GPCR Profiler; assay type: cell-based
T26 construct: host or cells: Chem-1 cells expressing Gα15

[28] = target: T27, M4 (Homo sapiens, UniProt P08173); assay: GPCR Profiler; assay type: cell-based
T27 construct: host or cells: Chem-1 cells with promiscuous Gα15

[29] = target: T28, MCHR1 (Homo sapiens, UniProt Q99705); assay: GPCR Profiler; assay type: cell-based; conditions: 12.5 uM
T28 construct: host or cells: Chem-1 cells with promiscuous Gα15

[30] = test system: A549; assay: Liperfluo lipid peroxidation; assay type: cell-based, human; conditions: OGM2 and ionizing radiation
Method: Where appropriate, ANOVA, or student's T-test were conducted in PRISM. Chi squared T(X) was used for Liperfluo analysis. A value T(X)>4 implies that the two distributions are different with a p<0.01 (99% confidence). For drug interaction and therapeutic interaction, the coefficient of drug interaction (CDI) was calculated as follows: CDI=AB/(A×B). According to the impact of each group, AB is the value of combined treatment and A or B is the value of the single agent group to control group.
Radiation, like OGM2, induces lipid peroxidation in addition to DNA damage. OGM was tested for its ability to sensitize lung and pancreatic cancers to radiation induced lipid peroxidation and ferroptosis. Cells were incubated at 37° C. in 5% CO2 in […] DMEM with DMSO, OGM2, or Erastin for 3 days. Then 2.5 μM Liperfluo in 3 ml fresh media was added and cells were incubated at 37° C. in 5% CO2 for 1 hour. Cells were then trypsinized, pelleted, and resuspended in cell sorting media (1% BSA and 1 mM EDTA in PBS pH 7.4). A BD LSR II was used to record Ten thousand events and the data processed with FlowJo v10.8. […] All treatments were highly significant with Chi-squared >4 indicating a p<0.01.

T20 sequence (P41180 20-1078): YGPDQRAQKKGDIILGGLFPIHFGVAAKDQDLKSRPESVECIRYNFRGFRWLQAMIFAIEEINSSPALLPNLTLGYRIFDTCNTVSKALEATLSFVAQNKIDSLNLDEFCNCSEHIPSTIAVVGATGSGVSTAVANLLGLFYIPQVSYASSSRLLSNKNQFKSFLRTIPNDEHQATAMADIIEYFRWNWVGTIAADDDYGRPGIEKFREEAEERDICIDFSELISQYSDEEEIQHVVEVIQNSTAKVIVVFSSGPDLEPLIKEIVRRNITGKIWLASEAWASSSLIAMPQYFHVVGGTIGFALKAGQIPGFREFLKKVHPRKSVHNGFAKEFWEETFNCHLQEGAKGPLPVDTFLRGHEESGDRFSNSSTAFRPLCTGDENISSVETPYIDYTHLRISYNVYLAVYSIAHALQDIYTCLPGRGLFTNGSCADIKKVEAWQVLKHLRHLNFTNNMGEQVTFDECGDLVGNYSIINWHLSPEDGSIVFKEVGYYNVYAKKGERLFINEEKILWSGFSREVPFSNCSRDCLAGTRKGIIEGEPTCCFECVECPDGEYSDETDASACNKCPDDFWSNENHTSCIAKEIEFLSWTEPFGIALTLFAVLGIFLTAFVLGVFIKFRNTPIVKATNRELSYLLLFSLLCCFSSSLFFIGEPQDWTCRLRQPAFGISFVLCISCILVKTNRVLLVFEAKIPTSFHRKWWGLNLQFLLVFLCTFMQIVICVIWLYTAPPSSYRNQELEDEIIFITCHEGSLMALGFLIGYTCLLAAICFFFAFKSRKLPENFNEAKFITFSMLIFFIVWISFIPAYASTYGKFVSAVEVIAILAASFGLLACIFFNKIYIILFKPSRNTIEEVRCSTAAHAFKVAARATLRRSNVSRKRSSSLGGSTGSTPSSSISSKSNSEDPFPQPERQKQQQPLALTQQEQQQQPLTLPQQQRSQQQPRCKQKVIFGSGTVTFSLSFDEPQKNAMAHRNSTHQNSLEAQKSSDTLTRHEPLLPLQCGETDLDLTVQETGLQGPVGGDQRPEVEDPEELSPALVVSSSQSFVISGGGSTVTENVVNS
T24 sequence (O00574 whole entry, species assumed): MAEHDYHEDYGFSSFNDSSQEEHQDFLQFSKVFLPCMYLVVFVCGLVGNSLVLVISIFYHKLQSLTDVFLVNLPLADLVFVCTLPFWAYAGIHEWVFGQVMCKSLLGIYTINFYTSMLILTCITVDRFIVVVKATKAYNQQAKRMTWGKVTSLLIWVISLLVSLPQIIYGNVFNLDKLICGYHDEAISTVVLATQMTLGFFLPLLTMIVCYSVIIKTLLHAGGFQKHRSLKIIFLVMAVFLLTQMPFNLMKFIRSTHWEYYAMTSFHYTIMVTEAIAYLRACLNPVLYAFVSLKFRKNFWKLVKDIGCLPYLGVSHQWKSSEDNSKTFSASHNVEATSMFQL
T18 sequence (P30542 whole entry): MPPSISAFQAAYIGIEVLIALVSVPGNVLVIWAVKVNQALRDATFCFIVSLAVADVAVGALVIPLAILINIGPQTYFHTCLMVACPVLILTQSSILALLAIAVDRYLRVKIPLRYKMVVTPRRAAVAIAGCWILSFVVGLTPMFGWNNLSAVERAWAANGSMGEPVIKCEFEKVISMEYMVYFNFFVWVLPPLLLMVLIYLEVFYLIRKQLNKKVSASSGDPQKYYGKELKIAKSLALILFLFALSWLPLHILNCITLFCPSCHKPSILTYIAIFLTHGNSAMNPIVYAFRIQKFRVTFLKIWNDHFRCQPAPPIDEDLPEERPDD
T27 sequence (P08173 whole entry): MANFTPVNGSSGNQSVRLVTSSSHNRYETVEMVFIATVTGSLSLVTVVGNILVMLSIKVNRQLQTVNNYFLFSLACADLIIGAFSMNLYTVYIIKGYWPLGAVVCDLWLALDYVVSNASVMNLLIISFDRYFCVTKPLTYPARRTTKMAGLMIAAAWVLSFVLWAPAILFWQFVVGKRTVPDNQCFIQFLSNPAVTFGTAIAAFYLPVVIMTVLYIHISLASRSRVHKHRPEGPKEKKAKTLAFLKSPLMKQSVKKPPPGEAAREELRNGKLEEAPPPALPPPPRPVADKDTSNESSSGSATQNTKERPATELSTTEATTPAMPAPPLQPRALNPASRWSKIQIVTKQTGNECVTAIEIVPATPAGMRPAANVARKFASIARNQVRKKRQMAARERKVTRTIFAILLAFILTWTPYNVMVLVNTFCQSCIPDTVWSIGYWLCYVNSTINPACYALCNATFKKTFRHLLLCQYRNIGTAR
T25 sequence (Q92847 whole entry): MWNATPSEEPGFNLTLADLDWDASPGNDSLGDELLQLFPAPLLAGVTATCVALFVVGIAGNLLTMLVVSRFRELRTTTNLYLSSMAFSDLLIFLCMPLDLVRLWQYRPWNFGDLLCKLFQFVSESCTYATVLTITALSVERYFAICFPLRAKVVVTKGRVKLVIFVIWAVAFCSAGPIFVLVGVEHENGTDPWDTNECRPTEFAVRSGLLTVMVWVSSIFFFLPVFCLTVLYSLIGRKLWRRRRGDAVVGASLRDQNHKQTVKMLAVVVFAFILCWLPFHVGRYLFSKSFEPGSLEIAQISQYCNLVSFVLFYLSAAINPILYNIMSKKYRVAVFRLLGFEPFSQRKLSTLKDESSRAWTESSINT
T26 sequence (P43220 24-463): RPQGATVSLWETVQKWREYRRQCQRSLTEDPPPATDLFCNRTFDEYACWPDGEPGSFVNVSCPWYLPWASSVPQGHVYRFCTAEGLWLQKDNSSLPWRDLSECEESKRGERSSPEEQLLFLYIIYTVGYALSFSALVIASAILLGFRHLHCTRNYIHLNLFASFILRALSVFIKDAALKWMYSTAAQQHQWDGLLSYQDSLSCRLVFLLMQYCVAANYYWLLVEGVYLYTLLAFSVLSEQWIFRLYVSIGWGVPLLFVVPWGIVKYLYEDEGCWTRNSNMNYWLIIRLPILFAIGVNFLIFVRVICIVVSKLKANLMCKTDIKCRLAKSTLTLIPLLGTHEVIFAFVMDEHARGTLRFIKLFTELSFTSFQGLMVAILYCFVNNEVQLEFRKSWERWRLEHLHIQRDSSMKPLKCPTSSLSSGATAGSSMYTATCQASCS
T19 sequence (P08588 whole entry, species assumed): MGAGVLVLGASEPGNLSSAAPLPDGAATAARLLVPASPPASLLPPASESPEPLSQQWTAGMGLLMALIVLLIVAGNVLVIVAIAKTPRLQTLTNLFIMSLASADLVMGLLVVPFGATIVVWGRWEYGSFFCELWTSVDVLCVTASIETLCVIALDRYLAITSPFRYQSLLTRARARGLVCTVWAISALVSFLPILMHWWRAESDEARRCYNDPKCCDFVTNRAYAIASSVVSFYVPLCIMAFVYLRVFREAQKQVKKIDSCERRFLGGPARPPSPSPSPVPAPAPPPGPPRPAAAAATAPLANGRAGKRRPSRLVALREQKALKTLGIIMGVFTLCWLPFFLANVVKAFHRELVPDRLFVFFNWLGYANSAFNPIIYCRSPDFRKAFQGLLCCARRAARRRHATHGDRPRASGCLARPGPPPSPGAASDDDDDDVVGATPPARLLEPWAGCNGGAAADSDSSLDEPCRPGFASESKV
T22 sequence (P51684 whole entry): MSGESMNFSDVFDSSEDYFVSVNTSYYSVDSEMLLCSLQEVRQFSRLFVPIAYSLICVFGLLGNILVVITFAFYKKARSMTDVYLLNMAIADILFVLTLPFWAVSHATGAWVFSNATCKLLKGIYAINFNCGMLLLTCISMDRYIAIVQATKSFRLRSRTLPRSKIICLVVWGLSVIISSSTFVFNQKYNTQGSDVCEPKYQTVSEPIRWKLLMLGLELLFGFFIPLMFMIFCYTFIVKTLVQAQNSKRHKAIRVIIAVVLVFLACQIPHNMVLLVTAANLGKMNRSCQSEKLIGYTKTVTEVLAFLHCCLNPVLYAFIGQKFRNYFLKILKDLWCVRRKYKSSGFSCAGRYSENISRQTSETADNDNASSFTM
T23 sequence (P34998 24-415): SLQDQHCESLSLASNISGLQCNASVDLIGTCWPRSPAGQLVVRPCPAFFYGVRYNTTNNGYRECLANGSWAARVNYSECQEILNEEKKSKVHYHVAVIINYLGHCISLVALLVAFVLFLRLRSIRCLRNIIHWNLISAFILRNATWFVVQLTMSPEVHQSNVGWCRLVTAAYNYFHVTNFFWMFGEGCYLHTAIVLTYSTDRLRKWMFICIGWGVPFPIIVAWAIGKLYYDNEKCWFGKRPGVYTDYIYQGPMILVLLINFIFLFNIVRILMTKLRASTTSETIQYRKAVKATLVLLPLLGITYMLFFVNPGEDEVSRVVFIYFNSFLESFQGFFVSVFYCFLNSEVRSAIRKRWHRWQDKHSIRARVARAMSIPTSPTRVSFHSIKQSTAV
T28 sequence (Q99705 whole entry, species assumed): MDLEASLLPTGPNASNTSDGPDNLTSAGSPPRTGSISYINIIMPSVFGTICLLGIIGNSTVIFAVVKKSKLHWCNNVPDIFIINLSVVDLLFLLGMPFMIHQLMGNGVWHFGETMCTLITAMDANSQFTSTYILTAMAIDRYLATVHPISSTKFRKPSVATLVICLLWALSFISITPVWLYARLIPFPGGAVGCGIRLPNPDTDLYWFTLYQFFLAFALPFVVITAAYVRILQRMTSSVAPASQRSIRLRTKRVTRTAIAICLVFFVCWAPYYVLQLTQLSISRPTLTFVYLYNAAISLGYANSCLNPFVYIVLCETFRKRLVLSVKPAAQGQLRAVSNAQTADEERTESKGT

**Q.** Which results are given for `CCc1ccc2c(c1)C1(NN=C(c3cccc4ccccc34)S1)C(=O)N2` (stereo not shown) [OGM1, 5-ethyl-5′-naphthalen-1-ylspiro[1H-indole-3,2′-3H-1,3,4-thiadiazole]-2-one]?
**A.** remaining binding at 10 µM [1]: 100%; remaining binding at 10 µM [2]: 68%; remaining binding at 10 µM [3]: 82%; remaining binding at 10 µM [4]: 100%; remaining binding at 10 µM [5]: 91%; remaining binding at 10 µM [6]: 100%; remaining binding at 10 µM [7]: 100%; remaining binding at 10 µM [8]: 99%; remaining binding at 10 µM [9]: 77%; remaining binding at 10 µM [10]: 100%; remaining binding at 10 µM [11]: 100%; remaining binding at 10 µM [12]: 68%; remaining binding at 10 µM [13]: 100%; remaining binding at 10 µM [14]: 93%; remaining binding at 10 µM [15]: 100%; remaining binding at 10 µM [16]: 79%; remaining binding at 10 µM [17]: 100%; remaining binding at 10 µM [18]: 100%; Antagonism ([19]; 10 uM): −13.9; Agonism ([19]; 12.5 uM): 0.1; Antagonism ([20]; 10 uM): −9.6; Agonism ([20]; 12.5 uM): −1.3; Antagonism ([21]; 10 uM): −3.6; Agonism ([21]; 12.5 uM): −1.2; Antagonism ([22]; 10 uM): 15.8; Agonism ([22]; 12.5 uM): 2.5; Antagonism ([23]; 10 uM): 5.1; Agonism ([23]; 12.5 uM): 1.5; Antagonism ([24]; 10 uM): 4.6; Agonism ([24]; 12.5 uM): −0.1; Antagonism ([25]; 10 uM): −14; Agonism ([25]; 12.5 uM): 0; Antagonism ([26]; 10 uM): −6.1; Agonism ([26]; 12.5 uM): 0.3; Antagonism ([27]; 10 uM): 2.1; Agonism ([27]; 12.5 uM): −0.3; Antagonism ([28]; 10 uM): −2.8; Agonism ([28]; 12.5 uM): −0.6; Agonism [29]: −0.4

**Q.** `CCc1ccc2c(c1)C1(NN=C(c3ccccc3)S1)C(=O)N2` (stereo not shown) [OGM2] was tested. Which “CDI, lipid peroxidation” value [30] did it give?
**A.** < 0.232
